Active and inactive are the calls of the source.
Legend:
[1] = molecular target: Luciferin 4-monooxygenase (Photinus pyralis, UniProt P08659); experiment: inhibition of purified Photinus pyralis luciferase – biochemical, luminescence, dose response (AID 1891)
[2] = Luminescence Cell-Based Dose Confirmation HTS to Identify Inhibitors of Platelet Dense Granule Release. [Related pubchem assays: 1663 (Primary HTS), 1678 (Summary of Project)]; assay type: functional
Ion channel NompC = Ion channel NompC (Danio rerio, UniProt Q7T1G6); experiment: Dose response cell-based high-throughput screening assay for agonists of the transient receptor potential channel N1 (TRPN1). [Related pubchem assays (depositor defined):AID1424, AID1448]; assay type: functional
Sequence of Ion channel NompC (Q7T1G6 whole entry): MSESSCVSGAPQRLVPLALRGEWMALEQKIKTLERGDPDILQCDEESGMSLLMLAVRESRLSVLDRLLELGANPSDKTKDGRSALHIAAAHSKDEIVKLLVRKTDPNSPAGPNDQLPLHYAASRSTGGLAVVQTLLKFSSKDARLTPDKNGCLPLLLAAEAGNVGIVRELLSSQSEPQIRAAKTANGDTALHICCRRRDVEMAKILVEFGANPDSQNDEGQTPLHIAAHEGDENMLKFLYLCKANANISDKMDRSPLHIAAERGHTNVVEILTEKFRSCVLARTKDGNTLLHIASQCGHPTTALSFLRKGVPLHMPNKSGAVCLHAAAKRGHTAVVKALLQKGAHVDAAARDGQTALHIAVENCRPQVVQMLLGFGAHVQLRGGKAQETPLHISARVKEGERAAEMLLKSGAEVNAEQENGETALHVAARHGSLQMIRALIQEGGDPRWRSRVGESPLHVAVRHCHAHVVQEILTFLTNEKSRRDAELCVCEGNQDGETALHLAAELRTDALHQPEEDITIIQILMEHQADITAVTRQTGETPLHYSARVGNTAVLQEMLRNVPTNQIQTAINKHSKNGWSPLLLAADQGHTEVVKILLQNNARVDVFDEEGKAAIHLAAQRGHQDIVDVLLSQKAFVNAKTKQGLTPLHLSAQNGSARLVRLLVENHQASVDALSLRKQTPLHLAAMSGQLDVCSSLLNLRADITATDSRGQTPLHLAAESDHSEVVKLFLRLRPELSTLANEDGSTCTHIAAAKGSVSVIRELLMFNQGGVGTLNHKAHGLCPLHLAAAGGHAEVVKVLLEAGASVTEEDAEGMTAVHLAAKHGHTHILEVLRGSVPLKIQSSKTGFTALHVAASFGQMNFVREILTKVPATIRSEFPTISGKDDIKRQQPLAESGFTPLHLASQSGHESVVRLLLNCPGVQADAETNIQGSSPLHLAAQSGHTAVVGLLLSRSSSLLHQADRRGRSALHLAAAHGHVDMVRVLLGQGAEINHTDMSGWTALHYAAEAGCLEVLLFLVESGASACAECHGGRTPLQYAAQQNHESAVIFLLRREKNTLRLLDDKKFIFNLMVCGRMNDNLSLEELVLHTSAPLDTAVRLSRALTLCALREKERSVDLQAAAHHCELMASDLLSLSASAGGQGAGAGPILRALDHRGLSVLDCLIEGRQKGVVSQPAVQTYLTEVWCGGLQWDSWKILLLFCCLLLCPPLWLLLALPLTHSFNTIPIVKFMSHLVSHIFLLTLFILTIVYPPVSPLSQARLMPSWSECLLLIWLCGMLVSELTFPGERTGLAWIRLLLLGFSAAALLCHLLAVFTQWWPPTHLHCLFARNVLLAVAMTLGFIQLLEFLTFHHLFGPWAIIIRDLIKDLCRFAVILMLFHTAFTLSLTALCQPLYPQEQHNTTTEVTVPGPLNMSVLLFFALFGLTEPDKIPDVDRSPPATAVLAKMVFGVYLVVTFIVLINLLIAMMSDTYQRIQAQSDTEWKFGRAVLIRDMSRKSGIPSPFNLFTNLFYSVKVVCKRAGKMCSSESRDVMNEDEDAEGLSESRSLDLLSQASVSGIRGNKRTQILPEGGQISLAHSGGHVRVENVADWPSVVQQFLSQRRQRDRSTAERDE

[3] = Trypanosoma cruzi growth suppression in host cells – NIH3T3 host cells, beta-gal luminescence, confirmation (AID 2044); assay type: functional, cell-based;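 further: intracellular parasites grown in NIH/3T3 mouse fibroblasts as host cells; luminescent beta-galactosidase reporter signal from transgenic T. cruzi replicating inside host cells; inhibitors lower the luminescence signal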
Mucolipin-3 = Mucolipin-3 (Homo sapiens, UniProt Q8TDD5); experiment: Fluorescence counterscreen assay for […] agonists: dose response cell-based high-throughput screening assay to identify agonists of the transient receptor potential channel ML3 (TRPML3). [Related pubchem assays: 1424, 1448 ]; assay type: functional
Sequence of Mucolipin-3 (Q8TDD5 whole entry): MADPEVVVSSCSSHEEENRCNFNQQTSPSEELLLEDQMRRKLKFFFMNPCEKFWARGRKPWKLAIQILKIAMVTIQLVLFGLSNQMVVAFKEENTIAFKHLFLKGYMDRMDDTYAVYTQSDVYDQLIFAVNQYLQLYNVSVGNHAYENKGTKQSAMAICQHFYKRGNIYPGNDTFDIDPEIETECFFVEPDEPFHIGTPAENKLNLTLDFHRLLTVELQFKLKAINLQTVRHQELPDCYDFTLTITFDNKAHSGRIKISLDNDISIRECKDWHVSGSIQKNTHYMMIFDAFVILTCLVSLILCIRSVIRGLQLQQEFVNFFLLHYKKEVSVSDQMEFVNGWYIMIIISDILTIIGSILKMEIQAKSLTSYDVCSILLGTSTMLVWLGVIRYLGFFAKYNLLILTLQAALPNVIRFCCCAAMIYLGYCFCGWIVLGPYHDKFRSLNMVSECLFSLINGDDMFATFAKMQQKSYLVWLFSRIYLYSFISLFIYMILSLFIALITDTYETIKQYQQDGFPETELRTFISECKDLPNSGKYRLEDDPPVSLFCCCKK

[4] = NIH3T3 cell viability loss – ATP luminescence, mouse fibroblasts, counter-screen, dose response (AID 2010); assay type: functional, cell-based;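 further: cells exposed to compound for about 90 hours before reading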
[5] = molecular target: T1, Short transient receptor potential channel 4 (Mus musculus, UniProt Q9QUQ5); experiment: calcium entry via TRPC4 opening agents – cell-based, HEK293 TRPC4/mu-opioid, Fluo-4 calcium, dose response (AID 434937); assay type: functional
T1 sequence (Q9QUQ5 whole entry): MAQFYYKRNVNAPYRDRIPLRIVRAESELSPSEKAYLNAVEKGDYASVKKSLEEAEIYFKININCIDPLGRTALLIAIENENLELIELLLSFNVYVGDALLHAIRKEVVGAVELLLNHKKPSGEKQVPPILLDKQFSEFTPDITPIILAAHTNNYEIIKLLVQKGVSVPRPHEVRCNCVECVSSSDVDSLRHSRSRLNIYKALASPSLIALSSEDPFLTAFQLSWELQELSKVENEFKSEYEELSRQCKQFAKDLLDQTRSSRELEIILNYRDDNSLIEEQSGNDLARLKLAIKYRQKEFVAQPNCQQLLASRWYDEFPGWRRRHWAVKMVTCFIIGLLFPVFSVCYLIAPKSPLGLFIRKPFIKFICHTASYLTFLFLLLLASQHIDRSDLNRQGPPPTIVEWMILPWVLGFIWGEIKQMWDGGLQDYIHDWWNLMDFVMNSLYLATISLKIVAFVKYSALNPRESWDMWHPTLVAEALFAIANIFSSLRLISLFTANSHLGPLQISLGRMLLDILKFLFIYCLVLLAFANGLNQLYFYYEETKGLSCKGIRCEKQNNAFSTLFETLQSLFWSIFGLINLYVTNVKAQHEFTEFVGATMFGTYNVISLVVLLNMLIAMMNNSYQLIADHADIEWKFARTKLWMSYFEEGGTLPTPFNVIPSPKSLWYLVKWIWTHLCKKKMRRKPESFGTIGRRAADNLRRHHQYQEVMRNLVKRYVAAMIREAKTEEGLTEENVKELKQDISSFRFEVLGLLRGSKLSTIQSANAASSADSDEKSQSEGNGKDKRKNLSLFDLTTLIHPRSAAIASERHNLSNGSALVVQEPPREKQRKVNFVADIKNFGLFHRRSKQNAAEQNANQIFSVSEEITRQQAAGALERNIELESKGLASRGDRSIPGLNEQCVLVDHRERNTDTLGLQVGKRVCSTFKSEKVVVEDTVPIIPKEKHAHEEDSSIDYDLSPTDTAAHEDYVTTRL

Vero [6] = experiment: cells; assay type: functional, cell-based; conditions: Chlorocebus sabaeus
Vero [7] = experiment: cells; assay type: functional; conditions: Chlorocebus sabaeus
[8] = molecular target: T2, G-protein coupled receptor 35 (Homo sapiens, UniProt Q9HC97); experiment: SAR analysis of Agonists of the GPR35 Receptor using an Image-Based Assay - Set 4. [Related pubchem assays (depositor defined):AID2013, AID2026]; assay type: functional
T2 sequence (Q9HC97 whole entry): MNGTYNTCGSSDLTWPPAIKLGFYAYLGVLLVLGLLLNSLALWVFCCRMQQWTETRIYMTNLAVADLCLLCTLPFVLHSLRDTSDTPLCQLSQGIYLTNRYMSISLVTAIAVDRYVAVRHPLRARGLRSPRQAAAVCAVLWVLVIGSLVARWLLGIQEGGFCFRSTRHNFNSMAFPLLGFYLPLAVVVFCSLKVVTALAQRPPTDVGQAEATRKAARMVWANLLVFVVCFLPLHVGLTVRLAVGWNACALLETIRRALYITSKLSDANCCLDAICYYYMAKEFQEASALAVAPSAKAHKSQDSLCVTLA

Cannabinoid receptor 1 [9] = molecular target: T3, Cannabinoid receptor 1 (Homo sapiens, UniProt P21554); experiment: SAR analysis of agonists of the Cannabinoid Receptor 1 using an Image-Based Assay - Set 4. [Related pubchem assays (depositor defined):AID2013, AID2026]; assay type: functional
T3 sequence (P21554 whole entry): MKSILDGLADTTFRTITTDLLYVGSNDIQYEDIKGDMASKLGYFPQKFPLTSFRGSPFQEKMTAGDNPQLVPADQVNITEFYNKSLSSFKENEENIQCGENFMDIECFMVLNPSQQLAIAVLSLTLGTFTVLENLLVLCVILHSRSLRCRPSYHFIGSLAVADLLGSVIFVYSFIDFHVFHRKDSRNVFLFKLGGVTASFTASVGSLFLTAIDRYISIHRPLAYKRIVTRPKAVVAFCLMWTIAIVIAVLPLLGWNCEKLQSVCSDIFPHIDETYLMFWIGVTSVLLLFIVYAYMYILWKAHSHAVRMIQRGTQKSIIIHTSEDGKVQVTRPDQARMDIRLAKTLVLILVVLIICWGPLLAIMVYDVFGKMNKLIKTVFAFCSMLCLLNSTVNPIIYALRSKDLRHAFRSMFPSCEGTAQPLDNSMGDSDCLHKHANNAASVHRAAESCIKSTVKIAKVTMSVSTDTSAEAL

[10] = molecular target: T2, G-protein coupled receptor 35; experiment: SAR analysis of Antagonists of the GPR35 Receptor using an Image-Based Assay - Set 6. [Related pubchem assays (depositor defined):AID2013, AID2026]; assay type: functional
Cannabinoid receptor 1 [11] = molecular target: T3, Cannabinoid receptor 1; experiment: SAR analysis of antagonists of the Cannabinoid Receptor 1 using an Image-Based Assay - Set 4. [Related pubchem assays (depositor defined):AID2013, AID2026]; assay type: functional
[12] = molecular target: G-protein coupled receptor 55 (Homo sapiens, UniProt Q9Y2T6); experiment: SAR Analysis of Selective Antagonists of GPR55 using an Image-Based Assay - Set 4. [Related pubchem assays (depositor defined):AID2013, AID2026]; assay type: functional;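 further: antagonism of response to 5 µM lysophosphatidylinositol agonist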
Sequence of G-protein coupled receptor 55 (Q9Y2T6 whole entry): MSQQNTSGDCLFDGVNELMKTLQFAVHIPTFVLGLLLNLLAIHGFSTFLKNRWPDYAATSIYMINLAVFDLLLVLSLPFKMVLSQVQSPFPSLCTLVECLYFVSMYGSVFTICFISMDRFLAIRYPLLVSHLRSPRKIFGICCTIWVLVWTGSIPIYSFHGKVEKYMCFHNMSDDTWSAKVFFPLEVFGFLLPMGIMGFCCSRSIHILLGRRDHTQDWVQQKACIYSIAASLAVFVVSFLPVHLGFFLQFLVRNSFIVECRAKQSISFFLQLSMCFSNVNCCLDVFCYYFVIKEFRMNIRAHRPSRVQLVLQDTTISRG

Cannabinoid receptor 2 [13] = molecular target: T4, Cannabinoid receptor 2 (Homo sapiens, UniProt P34972); experiment: SAR analysis of antagonists of the Cannabinoid Receptor 2 using an Image-Based Assay - Set 3. [Related pubchem assays (depositor defined):AID2013, AID2026]; assay type: functional
T4 sequence (P34972 whole entry): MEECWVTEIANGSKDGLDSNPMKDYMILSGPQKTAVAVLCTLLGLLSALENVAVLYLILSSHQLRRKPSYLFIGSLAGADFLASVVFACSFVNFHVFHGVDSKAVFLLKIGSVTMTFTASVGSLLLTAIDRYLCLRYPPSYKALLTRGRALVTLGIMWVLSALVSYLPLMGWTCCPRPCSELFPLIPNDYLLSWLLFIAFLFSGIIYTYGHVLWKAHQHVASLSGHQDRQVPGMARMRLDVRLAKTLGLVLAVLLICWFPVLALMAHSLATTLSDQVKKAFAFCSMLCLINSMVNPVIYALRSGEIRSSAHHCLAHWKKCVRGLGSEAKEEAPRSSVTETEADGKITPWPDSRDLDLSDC

Cannabinoid receptor 2 [14] = molecular target: T4, Cannabinoid receptor 2; experiment: SAR analysis of agonists of the Cannabinoid Receptor 2 using an Image-Based Assay - Set 3. [Related pubchem assays (depositor defined):AID2013, AID2026]; assay type: functional

Sequence of Luciferin 4-monooxygenase (P08659 whole entry): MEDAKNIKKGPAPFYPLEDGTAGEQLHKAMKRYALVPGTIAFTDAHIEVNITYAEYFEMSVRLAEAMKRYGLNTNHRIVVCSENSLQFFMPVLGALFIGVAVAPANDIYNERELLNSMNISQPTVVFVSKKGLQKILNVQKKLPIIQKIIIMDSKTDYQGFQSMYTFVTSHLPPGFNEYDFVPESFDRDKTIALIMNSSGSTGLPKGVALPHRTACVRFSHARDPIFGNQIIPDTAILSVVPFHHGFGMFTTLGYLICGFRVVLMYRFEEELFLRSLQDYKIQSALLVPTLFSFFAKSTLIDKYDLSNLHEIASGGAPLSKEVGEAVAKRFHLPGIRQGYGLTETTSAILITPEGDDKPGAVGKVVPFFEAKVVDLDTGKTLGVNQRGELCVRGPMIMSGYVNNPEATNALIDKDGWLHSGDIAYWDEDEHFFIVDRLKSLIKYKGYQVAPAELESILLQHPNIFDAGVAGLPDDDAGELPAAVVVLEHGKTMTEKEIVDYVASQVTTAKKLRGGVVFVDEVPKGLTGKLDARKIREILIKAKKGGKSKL

CC(C)(C)c1ccc(C(=O)NC(=S)NNC(=O)c2cccs2)cc1
EC50 [1]: > 112 µM (not active)
EC50 [2]: 24.5 µM (active)
EC50 (Ion channel NompC): 0.168 µM (active)
EC50 [3]: 2.15 µM (active)
EC50 (Mucolipin-3): 0.292 µM (active)
EC50 [4]: 13.5 µM (active)
EC50 [5]: 1.5 µM (active)
IC50 (Vero [6]): > 12.5 µM (active)
CC50 (Vero [7]): 17.4 µM (active)

COc1ccc(-c2nnc(C)c3nn(-c4ccc(C)cc4)cc23)cc1
EC50 [8]: > 32 µM (inactive)
EC50 (Cannabinoid receptor 1 [9]): > 32 µM (inactive)
IC50 [10]: > 32 µM (inactive)
IC50 (Cannabinoid receptor 1 [11]): 3.56 µM (active)
IC50 [12]: > 32 µM (inactive)
IC50 (Cannabinoid receptor 2 [13]): > 15.6 µM (inactive)
EC50 (Cannabinoid receptor 2 [14]): > 32 µM (inactive)
